In PMC10099810, “Rational Design and Synthesis of D‐galactosyl Lysophospholipids as Selective Substrates and non‐ATP‐competitive Inhibitors of Phosphatidylinositol Phosphate Kinases” (Chemistry (Weinheim an Der Bergstrasse, Germany), 2022):

Legend:
[1] = biological target: T1, hPIKfyve (human PIKfyve) (Homo sapiens, UniProt Q9Y2I7); assay: […]-ATP lipid kinase assay with TLC, diC16-PI3P substrate; assay type: biochemical
T1 construct: full length human PIKfyve with an N-terminal FLAG tag

[2] = biological target: T2, 5′ AMP-activated protein kinase α1 (AMPKα1) (Homo sapiens, UniProt Q13131); assay: KinaseProfiler activity screen, […] inhibition at […]; assay type: biochemical
T2 construct: gene PRKAA1

[3] = biological target: T3, zPIP5Kα (zebrafish PIP5Kα) (Danio rerio, UniProt Q503I3); assay: […]-ATP lipid kinase assay with TLC, diC16-PI4P substrate; ATP and PI4P competition; assay type: biochemical
T3 construct: gene pip5k1aa; zebrafish PIP5Kα with a C-terminal His-tag

[4] = substrate: CCCCCCCCCCCCCCCC(=O)NCCOP(=O)(O)OC[C@H]1OC(O)[C@H](OP(=O)(O)O)[C@@H](O)[C@H]1O; assay: purified protein; assay type: biochemical, Danio rerio; settings: Mg2+, phosphorylated at the anomeric OH

T1 sequence (Q9Y2I7 2-2098): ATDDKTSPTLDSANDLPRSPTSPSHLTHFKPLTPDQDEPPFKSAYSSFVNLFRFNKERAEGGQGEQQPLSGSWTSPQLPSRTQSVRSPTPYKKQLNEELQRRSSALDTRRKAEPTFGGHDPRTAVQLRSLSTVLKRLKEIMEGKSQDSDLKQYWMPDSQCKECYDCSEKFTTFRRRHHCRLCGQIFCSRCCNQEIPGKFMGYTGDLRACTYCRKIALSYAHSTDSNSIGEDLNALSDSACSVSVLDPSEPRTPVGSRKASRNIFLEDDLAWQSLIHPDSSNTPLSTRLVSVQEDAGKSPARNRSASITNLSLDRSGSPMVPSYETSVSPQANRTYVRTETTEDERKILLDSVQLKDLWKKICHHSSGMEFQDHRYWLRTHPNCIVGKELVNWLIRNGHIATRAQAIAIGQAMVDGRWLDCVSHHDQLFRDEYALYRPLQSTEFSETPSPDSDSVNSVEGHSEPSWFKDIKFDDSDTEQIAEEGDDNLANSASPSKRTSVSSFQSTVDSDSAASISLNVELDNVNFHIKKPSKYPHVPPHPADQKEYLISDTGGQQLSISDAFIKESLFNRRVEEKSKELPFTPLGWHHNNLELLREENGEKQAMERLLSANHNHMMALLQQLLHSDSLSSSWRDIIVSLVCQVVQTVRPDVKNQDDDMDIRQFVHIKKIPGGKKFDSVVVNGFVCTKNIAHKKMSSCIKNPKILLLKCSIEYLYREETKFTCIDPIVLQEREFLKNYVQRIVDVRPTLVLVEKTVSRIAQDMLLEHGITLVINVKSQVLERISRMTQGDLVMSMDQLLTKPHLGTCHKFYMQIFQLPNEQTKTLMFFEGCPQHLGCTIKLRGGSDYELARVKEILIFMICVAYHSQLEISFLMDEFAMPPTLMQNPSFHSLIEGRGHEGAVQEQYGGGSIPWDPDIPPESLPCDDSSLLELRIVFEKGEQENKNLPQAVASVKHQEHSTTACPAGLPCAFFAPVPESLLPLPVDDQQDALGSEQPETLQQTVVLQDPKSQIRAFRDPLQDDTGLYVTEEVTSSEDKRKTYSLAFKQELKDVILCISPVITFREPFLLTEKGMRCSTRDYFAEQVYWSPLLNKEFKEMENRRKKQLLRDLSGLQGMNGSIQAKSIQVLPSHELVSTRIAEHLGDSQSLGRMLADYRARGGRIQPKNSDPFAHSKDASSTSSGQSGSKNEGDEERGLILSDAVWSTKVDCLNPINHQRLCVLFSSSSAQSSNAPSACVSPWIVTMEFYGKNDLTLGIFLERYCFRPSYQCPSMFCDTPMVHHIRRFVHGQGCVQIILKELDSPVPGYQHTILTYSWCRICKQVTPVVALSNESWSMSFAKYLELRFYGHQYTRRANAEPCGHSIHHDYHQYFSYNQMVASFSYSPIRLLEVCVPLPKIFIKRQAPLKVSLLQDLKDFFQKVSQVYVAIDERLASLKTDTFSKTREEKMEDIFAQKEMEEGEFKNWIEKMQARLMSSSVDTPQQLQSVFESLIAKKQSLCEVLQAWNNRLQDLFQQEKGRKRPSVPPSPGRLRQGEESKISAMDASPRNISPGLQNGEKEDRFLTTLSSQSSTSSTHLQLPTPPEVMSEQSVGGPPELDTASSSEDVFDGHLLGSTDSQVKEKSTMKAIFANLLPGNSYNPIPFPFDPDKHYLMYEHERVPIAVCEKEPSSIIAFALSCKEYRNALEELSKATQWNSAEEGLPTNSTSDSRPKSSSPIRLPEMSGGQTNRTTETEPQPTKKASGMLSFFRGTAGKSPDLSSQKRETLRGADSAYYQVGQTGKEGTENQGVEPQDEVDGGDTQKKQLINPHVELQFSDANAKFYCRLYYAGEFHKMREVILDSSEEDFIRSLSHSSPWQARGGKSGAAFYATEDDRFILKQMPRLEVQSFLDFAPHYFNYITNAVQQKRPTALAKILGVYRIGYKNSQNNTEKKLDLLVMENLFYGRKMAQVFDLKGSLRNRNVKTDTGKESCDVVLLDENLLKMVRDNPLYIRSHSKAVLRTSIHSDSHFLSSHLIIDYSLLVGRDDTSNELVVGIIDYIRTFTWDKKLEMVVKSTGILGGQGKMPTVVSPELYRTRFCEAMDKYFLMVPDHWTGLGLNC
T2 sequence (Q13131 whole entry): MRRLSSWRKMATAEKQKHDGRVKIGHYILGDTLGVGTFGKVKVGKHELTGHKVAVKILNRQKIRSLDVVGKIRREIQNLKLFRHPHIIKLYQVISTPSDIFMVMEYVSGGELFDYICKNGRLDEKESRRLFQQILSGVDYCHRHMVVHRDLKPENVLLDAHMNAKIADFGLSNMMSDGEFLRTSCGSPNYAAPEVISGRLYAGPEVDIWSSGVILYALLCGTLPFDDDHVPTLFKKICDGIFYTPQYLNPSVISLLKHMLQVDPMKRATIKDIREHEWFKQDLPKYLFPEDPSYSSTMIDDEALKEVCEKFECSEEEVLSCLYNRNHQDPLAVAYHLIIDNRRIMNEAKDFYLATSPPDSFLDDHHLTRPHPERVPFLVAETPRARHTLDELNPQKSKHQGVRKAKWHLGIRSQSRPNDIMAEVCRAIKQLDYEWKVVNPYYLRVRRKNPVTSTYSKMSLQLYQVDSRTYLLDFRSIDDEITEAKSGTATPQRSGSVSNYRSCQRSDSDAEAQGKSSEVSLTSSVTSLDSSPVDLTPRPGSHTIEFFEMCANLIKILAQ
T2 sequence (Q9Y478 2-270 partner): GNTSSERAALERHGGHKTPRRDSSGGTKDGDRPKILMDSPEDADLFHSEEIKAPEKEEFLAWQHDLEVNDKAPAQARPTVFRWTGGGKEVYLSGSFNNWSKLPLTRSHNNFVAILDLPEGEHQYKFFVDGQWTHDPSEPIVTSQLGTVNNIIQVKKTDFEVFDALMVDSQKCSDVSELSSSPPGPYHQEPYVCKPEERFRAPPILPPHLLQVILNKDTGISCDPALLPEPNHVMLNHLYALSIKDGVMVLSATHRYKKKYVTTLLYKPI
T2 sequence (P54619 whole entry partner): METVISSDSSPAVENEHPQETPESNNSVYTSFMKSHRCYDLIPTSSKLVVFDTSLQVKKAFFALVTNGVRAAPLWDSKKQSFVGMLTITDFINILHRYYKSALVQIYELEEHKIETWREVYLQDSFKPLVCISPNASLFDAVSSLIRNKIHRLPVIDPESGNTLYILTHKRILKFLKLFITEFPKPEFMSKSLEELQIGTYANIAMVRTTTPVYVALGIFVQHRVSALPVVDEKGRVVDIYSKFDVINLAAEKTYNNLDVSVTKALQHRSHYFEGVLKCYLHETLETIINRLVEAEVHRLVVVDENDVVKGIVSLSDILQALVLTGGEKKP

Q: Which results are given for `CCCCCCCCCCCCCCCC(=O)NCCOP(=O)(O)OC[C@H]1O[C@@H](OC)[C@H](OP(=O)(O)O)[C@H]2OC(C)(C)O[C@H]21` [compound 6]?
A: IC50 [1]: 6.2 µM; inhibition at 20 µM [2]: 50%; IC50 [3]: ~15 µM

B1: zPIP5Kα (zebrafish PIP5Kα) (Danio rerio) (protein)
chain: MAAPAVVSTDGADSSTPGNRKMASSEGLSTLGSSQTNKKTLGHRGIDPTGETTYKKTTSSALKGAIQLGITHSVGSLSQKPERDVLMQDFEVVESIFFPSQGSSSTPGHHHGDFKFKTYAPIAFRYFREMFGIRPDDYLYSLCNEPLIELSNPGASGSLFYVSSDDEFIIKTVQHKEAEFLQTLLPGYFMNLNQNMRTLLPKFYGLYCVQADGKNIRIVVMNNLLPRAVPMHLKFDLKGSTYKRRASPKERSKGVPTYKDLDFMQDMPEGILLENDHYTALSRTMQRDCRVLQSFKIMDYSLLVGIHILHRAGEEASTAVPDTQKKGQGQKPLYCTAIESIQGESKSKTSPQPYESMGGIPAFNSKGERLLVFIGIIDILQSYRLVKKLEHSWKALLHDGDTVSVHRPSFYADRFQKFMCSTVFRKSQLKTSPSKRSRLGPVSAGKKSNIAVSGQSHQQSLPVAAELTQSQLWSSEDPQGDSGMQTARPDLLPQQVAEDDITSSSADTTLSATSLVNSRLSTNTPVLSRSSVAGHSSEESLDMDVISLSEIVPQTSTSE
notes: zebrafish PIP5Kα with a C-terminal His-tag
Q: With B1 as the molecule, how does the Km [4] read?
A: 10 ± 1.3 µM
